# In patent publication US20250120942A1, “BRAIN FUNCTION IMPROVING AGENT” (OSAKA UNIVERSITY, priority 2021, published 2025):
# Tests used:
# [1] = tested on: extracellular acetylcholine in the cerebral cortex; test: Amount of extracellular acetylcholine in mouse brain by in vivo microdialysis (Test Example 1); design: species or system ddY mouse; details: for amount of extracellular acetylcholine in the cerebral cortex (ratio to basic released amount): oral 30 mg/kg, measured for 120 minutes after administration, compared with before administration, FIG. 1
# Procedure: The compound A, B, and C were administered orally to the mouse and the effect on the amount of extracellular acetylcholine in the brain was examined. The brain microdyalysis method using the mouse is proposed as a test for evaluating cognitive dysfunction including Alzheimer type dementia. The brain microdyalysis method is a system that can monitor the variation of extracellular neurotransmitter release in real time at the local parts in the brain while the test animals are moving freely without anesthesia.
# (§1) 7-weeks-old male ddY mice were purchased from Japan SLC, Inc. and subjected to the experiment after one week habituation period. The animals were reared in the rearing chamber provided with air conditioner (under the condition that the temperature was 22° C.±1° C., the relative humidity was 50±10%, and the irradiation time was 12 hours (8:00 to 20:00)). The feeding method was that the commercially available MF powdery feed (manufactured by Oriental Yeast Co., ltd.) and tap water were taken freely.
# In the two days before the start of the experiment, the fixing operation of the guide cannula for inserting the dialysis probe in the mouse was conducted in advance. Under the deep anesthetized conditions, the guide cannula (depth 4 mm) (manufactured by Eicom Corp.,) was inserted in and fixed on cerebral cortex prefrontal area (which was 1.9 mm forward and 0.5 mm right side from the bregma and to which the depth from cranial surface was 0.8 mm). Buprenorphine (0.01 mg/kg manufactured by Sigma-Aldrich Japan) was administered to the mouse as analgesic after the operation. Each mouse was reared in the separate cage after the operation.
# In the step of measuring extracellular acetylcholine in the brain, the dialysis probe (membrane length 3 mm) (manufactured by Eicom Corp.,) was inserted in the guide cannula and the Ringer's solution in the Japanese Pharmacopeia (containing NaCl (147.2 mM), KCl (4.0 mM), and CaCl2 (2.2 mM); manufactured by FUSO CHEMICAL CO., LTD.) was perfused at the flow velocity of 1 μL/min. The sample obtained by the perfusion was collected every 20 minutes and was immediately continuously automatically injected in the high-speed liquid chromatography/electrochemical detector (HPLC/ECD) system (manufactured by Eicom Corp., HTEC-500) together with the internal standard material (isopropylhomocholine, 250 fmol) and acetylcholine was measured under the condition described below.
# • Column: Eicompak AC-GEL (2.0 mm; i.d.×150 mm) (manufactured by Eicom Corp.,) • Precolumn: PC-05-03 (3.0 mm; i.d.×40 mm) (manufactured by Eicom Corp.,) • Enzyme-immobilized column: AC-Enzympak (3.0 mm; i.d.) (manufactured by Eicom Corp.,) • Mobile Phase: 50 mM potassium hydrogen carbonate buffer containing 400 mg/L sodium decansulfonic acid and 134 μM EDTA (pH 8.3) • Flow Velocity: 150 μl/min. • Temperature of column: 33° C. • Applied voltage of ECD: +450 mV • Reference electrode: Ag/AgCl electrode • Work electrode: platinum electrode
# The compound A prepared according to the procedure described in Manufacturing Example 1 was dissolved in 2.5% DMSO solution in advance to prepare for the test. […] The amount of the extracellular acetylcholine released was measured by the procedure described above in (a) Used animal and Rearing Procedure in real time for 120 minutes after the administration. The mouse in Vehicle group took only 2.5% DMSO solution orally in the same way and the amount of the extracellular acetylcholine was measured. […]
# [2] = tested on: cranial nerve cell SH-SY5Y; details: SH-SY5Y in vitro; cited from earlier work
# [3] = mouse, oral administration; cited from earlier work
# [4] = target: acetylcholine esterase (Homo sapiens, UniProt P22303); test: Inhibiting action of acetylcholine esterase (data not described); assay type: biochemical
# Chain of acetylcholine esterase (P22303 32-614): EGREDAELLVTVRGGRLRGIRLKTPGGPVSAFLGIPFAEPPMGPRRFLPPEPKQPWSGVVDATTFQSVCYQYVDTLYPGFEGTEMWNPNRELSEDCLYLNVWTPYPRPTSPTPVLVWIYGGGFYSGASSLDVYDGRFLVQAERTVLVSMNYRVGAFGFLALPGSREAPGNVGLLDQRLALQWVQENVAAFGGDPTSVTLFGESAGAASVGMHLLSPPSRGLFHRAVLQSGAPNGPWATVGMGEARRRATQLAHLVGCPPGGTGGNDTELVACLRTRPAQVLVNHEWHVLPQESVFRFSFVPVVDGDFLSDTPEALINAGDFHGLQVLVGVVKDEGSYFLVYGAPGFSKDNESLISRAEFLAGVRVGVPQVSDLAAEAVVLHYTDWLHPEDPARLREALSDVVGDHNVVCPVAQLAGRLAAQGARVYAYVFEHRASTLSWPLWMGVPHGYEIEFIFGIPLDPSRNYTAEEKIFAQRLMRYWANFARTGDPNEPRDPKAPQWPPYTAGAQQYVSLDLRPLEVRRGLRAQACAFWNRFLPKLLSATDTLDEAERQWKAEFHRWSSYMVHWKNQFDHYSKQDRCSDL
# [5] = tested on: cytotoxicity induced by β-oligomer; details: cited from earlier work
# [6] = cited from earlier work
# [7] = tested on: amyloid β; details: mouse model of the Alzheimer's disease; cited from earlier work
# [8] = tested on: scopolamine-induced amnesia mouse; test: Y-maze test, short-term working memory of scopolamine-induced amnesia mouse (Test Example 2); assay type: in vivo, ddY mouse; details: oral 30 mg/kg, scopolamine 1 mg/kg i.p.; FIG. 2(A),(B)
# Procedure: The effect of inhibiting lowering of short-term memory was examined by orally or subcutaneously (intraperitoneally) administering the compound A to the mouse.
# as §1
# The compound A prepared according to the procedure described in Manufacturing Example 1 was dissolved in 2.5% DMSO solution in advance. There were 15 mice in each group, and the 30 mg/kg compound administration group and the 10 mg/kg compound administration group were established and orally administered. The mice of the control group and Vehicle group were orally administered with only 2.5% DMSO solution. In the same manner the compound B and the compound C were orally administered to 10 mice at a dose of 30 mg/kg respectively. Each mouse of the administration groups of the compound A to C and the vehicle group was intraperitoneally administered with scopolamine hydrobromide (manufactured by Sigma-Aldrich Japan S1875) (a dose of 1 mg/kg) which is muscarinic acetylcholine receptor antagonist 30 minutes after the administration. The mice of the control group which were not administered with scopolamine hydrobromide were intraperitoneally administered with (Japanese Pharmacopoeia) physiological saline solution (OTSUKA NORMAL SALINE 3311401A2026). At 30 minutes after the final administration, Y-maze test was conducted, and the working memory was evaluated. The test using the mice orally administered was separately conducted under the same condition as that described above for comparative evaluation of the intraperitoneal administration.
# The Y-maze manufactured by Brain Science. idea Co., Ltd. was used for the test. The maze was the maze 3 courses of which were made into Y-letter shape having one selection point and arranged at interval of an angle of 120 degree. […] The mouse put on the gray course (made of polyvinyl chloride) was kept in the conditions and the mouse can see nothing but the upper part. Any one of the 3 courses of the maze was set as a starting point. After placing the mouse quietly at the starting point, the number of the times the mouse entered each course was record per 8 minutes, and as well as which course and in what order the mouse entered it. The ratio of the number of three consecutive entries into different courses (the number of the alternation behavior) to the total number of the selections was calculated as Spontaneous Alternation (%) according to the following formula and was used as an index of the short-term working memory.
# From the results obtained, the mean (Mean) and the standard error (SEM) were calculated. The significant difference between the control group and the Vehicle group and between the compound A administration group and the Vehicle group was assessed by Turkey-Kramer's test. The level of significance was set to *P<0.05 and **p<0.01.
smiles,measurement,setting,value
"O=C1CCC(Cc2cc(O)cc(O)c2)O1 (centres unmarked) [5-(3,5-dihydroxyphenyl)-γ-valerolactone]",time until which the increased amount of free acetylcholine is maintained,[1]; after the administration,≤ 100 min
same,nerve cell proliferating action,[2],significant nerve cell proliferating action
same,sulfate conjugate and glucuronic acid conjugate in the serum,[3],detected
same,inhibiting action of acetylcholine esterase,[4],do not provide inhibiting action
O=C1CCC(Cc2ccc(O)cc2)O1 (centres unmarked) [5-(4-monohydroxyphenyl)-γ-valerolactone],cytotoxicity induced by β-oligomer,[5],reduces the cytotoxicity
"O=C(O[C@@H]1Cc2c(O)cc(O)cc2O[C@@H]1c1cc(O)c(O)c(O)c1)c1cc(O)c(O)c(O)c1 [EGCg, epigallocatechingallate]",amount absorbed into the body after ingestion (bioavailability),[6],extremely low
same,generation of amyloid β,[7],inhibit the generation of amyloid β
"O=C1CC[C@H](Cc2ccc(O)c(O)c2)O1 [compound B, (R)-5-(3,4-dihydroxyphenyl)-γ-valerolactone, reference compound]",amount of extracellular acetylcholine in the cerebral cortex (ratio to basic released amount),[1],not significant change
same,ameliorating the impairment of short-term working memory (Spontaneous Alternation),[8],not confirmed at all
"O=C1CC[C@H](Cc2cc(O)c(O)c(O)c2)O1 [compound C, (R)-5-(3,4,5-trihydroxyphenyl)-γ-valerolactone, reference compound]",amount of extracellular acetylcholine in the cerebral cortex (ratio to basic released amount),[1],not significant change
same,ameliorating the impairment of short-term working memory (Spontaneous Alternation),[8],not confirmed at all
